In patent US9469650B2, “Melampomagnolide B derivatives” (BOARD OF TRUSTEES OF THE UNIVERSITY OF ARKANSAS, priority 2013, dated 2016):
Where two headings read alike, the source gives them in different places.

Legend:
HS 578T = assay: panel of 60 human tumor cell lines, growth inhibition (Breast Cancer); details: HS 578T
SK-MEL-2 = assay: panel of 60 human tumor cell lines, growth inhibition (Melanoma); details: SK-MEL-2
IGROV1 = assay: panel of 60 human tumor cell lines, growth inhibition (Ovarian Cancer); details: IGROVI
SK-MEL-5 = assay: panel of 60 human tumor cell lines, growth inhibition (Melanoma); details: 8K-MEL-5
M14 = assay: as above; details: M14
MCF7 = assay: panel of 60 human tumor cell lines, growth inhibition (Breast Cancer); details: MCF7
SF-268 = assay: panel of 60 human tumor cell lines, growth inhibition (CNS Cancer); details: SF-268
NCI-H226 = assay: panel of 60 human tumor cell lines, growth inhibition (Non-Small Cell Lung Cancer); details: NCI-H226
A549/ATCC = assay: as above; details: A549/ATCC
SN12C = assay: panel of 60 human tumor cell lines, growth inhibition (Renal Cancer)
ACHN = assay: as above
HCT-15 = assay: panel of 60 human tumor cell lines, growth inhibition (Colon Cancer); details: HCT-15
NCI-H460 = assay: panel of 60 human tumor cell lines, growth inhibition (Non-Small Cell Lung Cancer); details: NCI-H460
BT-549 = assay: panel of 60 human tumor cell lines, growth inhibition (Breast Cancer); details: BT-549
OVCAR-8 = assay: panel of 60 human tumor cell lines, growth inhibition (Ovarian Cancer); details: OVCAR-8
MDA-MB-435 = assay: panel of 60 human tumor cell lines, growth inhibition (Melanoma); details: MDA-MB-435
TK-10 = assay: panel of 60 human tumor cell lines, growth inhibition (Renal Cancer); details: TK-10
MDA-MB-231/ATCC = assay: panel of 60 human tumor cell lines, growth inhibition (Breast Cancer); details: MDA-MB-231/ATCC

## C=C1C(=O)O[C@H]2[C@H]1CC/C(COC(=O)NCCO)=C\CC[C@@]1(C)O[C@@H]21 [JVM 2-50]
HS 578T; Log10 Concentration −4.0
  Percent Growth: 22%
HS 578T; Log10 Concentration −5.0
  Percent Growth: 82%
HS 578T; Log10 Concentration −6.0
  Percent Growth: 91%
HS 578T; Log10 Concentration −7.0
  Percent Growth: 88%
HS 578T; Log10 Concentration −8.0
  Percent Growth: 92%
HS 578T; NCI five dose
  GI50: 34.3 µM
  TGI: >1.00E−4
SK-MEL-2; Log10 Concentration −4.0
  Percent Growth: −54%
SK-MEL-2; Log10 Concentration −5.0
  Percent Growth: 83%
SK-MEL-2; Log10 Concentration −6.0
  Percent Growth: 115%
SK-MEL-2; Log10 Concentration −7.0
  Percent Growth: 116%
SK-MEL-2; Log10 Concentration −8.0
  Percent Growth: 106%
SK-MEL-2; NCI five dose
  GI50: 18.5 µM
  TGI: 4.18E−5
IGROV1; Log10 Concentration −4.0
  Percent Growth: −36%
IGROV1; Log10 Concentration −5.0
  Percent Growth: 49%
IGROV1; Log10 Concentration −6.0
  Percent Growth: 109%
IGROV1; Log10 Concentration −7.0
  Percent Growth: 106%
IGROV1; Log10 Concentration −8.0
  Percent Growth: 95%
IGROV1; NCI five dose
  GI50: 9.79 µM
  TGI: 1.80E−5
SK-MEL-5; Log10 Concentration −4.0
  Percent Growth: −34%
SK-MEL-5; Log10 Concentration −5.0
  Percent Growth: 84%
SK-MEL-5; Log10 Concentration −6.0
  Percent Growth: 100%
SK-MEL-5; Log10 Concentration −7.0
  Percent Growth: 100%
SK-MEL-5; Log10 Concentration −8.0
  Percent Growth: 102%
SK-MEL-5; NCI five dose
  GI50: 19.5 µM
  TGI: 5.15E−5
M14; Log10 Concentration −4.0
  Percent Growth: −57%
M14; Log10 Concentration −5.0
  Percent Growth: 56%
M14; Log10 Concentration −6.0
  Percent Growth: 92%
M14; Log10 Concentration −7.0
  Percent Growth: 97%
M14; Log10 Concentration −8.0
  Percent Growth: 91%
M14; NCI five dose
  GI50: 11.2 µM
  TGI: 3.11E−5
MCF7; Log10 Concentration −4.0
  Percent Growth: −59%
MCF7; Log10 Concentration −5.0
  Percent Growth: 16%
MCF7; Log10 Concentration −6.0
  Percent Growth: 84%
MCF7; Log10 Concentration −7.0
  Percent Growth: 89%
MCF7; Log10 Concentration −8.0
  Percent Growth: 87%
MCF7; NCI five dose
  GI50: 3.16 µM
  TGI: 1.61E−5
SF-268; Log10 Concentration −4.0
  Percent Growth: −51%
SF-268; Log10 Concentration −5.0
  Percent Growth: 90%
SF-268; Log10 Concentration −6.0
  Percent Growth: 100%
SF-268; Log10 Concentration −7.0
  Percent Growth: 99%
SF-268; Log10 Concentration −8.0
  Percent Growth: 99%
SF-268; NCI five dose
  GI50: 19.3 µM
  TGI: 4.38E−5
NCI-H226; Log10 Concentration −4.0
  Percent Growth: −37%
NCI-H226; Log10 Concentration −5.0
  Percent Growth: 67%
NCI-H226; Log10 Concentration −6.0
  Percent Growth: 91%
NCI-H226; Log10 Concentration −7.0
  Percent Growth: 96%
NCI-H226; Log10 Concentration −8.0
  Percent Growth: 93%
NCI-H226; NCI five dose
  GI50: 14.6 µM
  TGI: 4.43E−5
A549/ATCC; Log10 Concentration −4.0
  Percent Growth: 3%
A549/ATCC; Log10 Concentration −5.0
  Percent Growth: 93%
A549/ATCC; Log10 Concentration −6.0
  Percent Growth: 96%
A549/ATCC; Log10 Concentration −7.0
  Percent Growth: 92%
A549/ATCC; Log10 Concentration −8.0
  Percent Growth: 96%
A549/ATCC; NCI five dose
  GI50: 30.2 µM
  TGI: >1.00E−4
SN12C; Log10 Concentration −4.0
  Percent Growth: −12%
SN12C; Log10 Concentration −5.0
  Percent Growth: 73%
SN12C; Log10 Concentration −6.0
  Percent Growth: 31%
SN12C; Log10 Concentration −7.0
  Percent Growth: 91%
SN12C; Log10 Concentration −8.0
  Percent Growth: 94%
SN12C; NCI five dose
  GI50: 18.6 µM
  TGI: 7.22E−5
ACHN; Log10 Concentration −4.0
  Percent Growth: 84%
ACHN; Log10 Concentration −5.0
  Percent Growth: 43%
ACHN; Log10 Concentration −6.0
  Percent Growth: 99%
ACHN; Log10 Concentration −7.0
  Percent Growth: 101%
ACHN; Log10 Concentration −8.0
  Percent Growth: 96%
ACHN; NCI five dose
  GI50: 7.44 µM
  TGI: 2.52E−5
HCT-15; Log10 Concentration −4.0
  Percent Growth: −71%
HCT-15; Log10 Concentration −5.0
  Percent Growth: 16%
HCT-15; Log10 Concentration −6.0
  Percent Growth: 94%
HCT-15; Log10 Concentration −7.0
  Percent Growth: 95%
HCT-15; Log10 Concentration −8.0
  Percent Growth: 93%
HCT-15; NCI five dose
  GI50: 3.7 µM
  TGI: 1.54E−5
NCI-H460; Log10 Concentration −4.0
  Percent Growth: 8%
NCI-H460; Log10 Concentration −5.0
  Percent Growth: 98%
NCI-H460; Log10 Concentration −6.0
  Percent Growth: 98%
NCI-H460; Log10 Concentration −7.0
  Percent Growth: 100%
NCI-H460; Log10 Concentration −8.0
  Percent Growth: 100%
NCI-H460; NCI five dose
  GI50: 34 µM
  TGI: >1.00E−4
HL-60(TB); Log10 Concentration −4.0
  Percent Growth: −48%
HL-60(TB); Log10 Concentration −5.0
  Percent Growth: 9%
HL-60(TB); Log10 Concentration −6.0
  Percent Growth: 111%
HL-60(TB); Log10 Concentration −7.0
  Percent Growth: 109%
HL-60(TB); Log10 Concentration −8.0
  Percent Growth: 106%
HL-60(TB); NCI five dose
  GI50: 3.99 µM
HL-60(TB); read-out: LC50, NCI five dose
  CC50: > 100 µM
BT-549; Log10 Concentration −4.0
  Percent Growth: −91%
BT-549; Log10 Concentration −5.0
  Percent Growth: 21%
BT-549; Log10 Concentration −6.0
  Percent Growth: 83%
BT-549; Log10 Concentration −7.0
  Percent Growth: 91%
BT-549; Log10 Concentration −8.0
  Percent Growth: 85%
BT-549; NCI five dose
  GI50: 3.26 µM
  TGI: 1.53E−5
OVCAR-8; Log10 Concentration −4.0
  Percent Growth: −25%
OVCAR-8; Log10 Concentration −5.0
  Percent Growth: 62%
OVCAR-8; Log10 Concentration −6.0
  Percent Growth: 97%
OVCAR-8; Log10 Concentration −7.0
  Percent Growth: 96%
OVCAR-8; Log10 Concentration −8.0
  Percent Growth: 98%
OVCAR-8; NCI five dose
  GI50: 13.7 µM
  TGI: 5.15E−5
MDA-MB-435; Log10 Concentration −4.0
  Percent Growth: −84%
MDA-MB-435; Log10 Concentration −5.0
  Percent Growth: 40%
MDA-MB-435; Log10 Concentration −6.0
  Percent Growth: 91%
MDA-MB-435; Log10 Concentration −7.0
  Percent Growth: 96%
MDA-MB-435; Log10 Concentration −8.0
  Percent Growth: 91%
MDA-MB-435; NCI five dose
  GI50: 6.37 µM
  TGI: 2.10E−5
TK-10; Log10 Concentration −4.0
  Percent Growth: −91%
TK-10; Log10 Concentration −5.0
  Percent Growth: 55%
TK-10; Log10 Concentration −6.0
  Percent Growth: 110%
TK-10; Log10 Concentration −7.0
  Percent Growth: 103%
TK-10; Log10 Concentration −8.0
  Percent Growth: 100%
TK-10; NCI five dose
  GI50: 10.8 µM
MDA-MB-231/ATCC; Log10 Concentration −4.0
  Percent Growth: −66%
MDA-MB-231/ATCC; Log10 Concentration −5.0
  Percent Growth: 63%
MDA-MB-231/ATCC; Log10 Concentration −6.0
  Percent Growth: 99%
MDA-MB-231/ATCC; Log10 Concentration −7.0
  Percent Growth: 91%
MDA-MB-231/ATCC; Log10 Concentration −8.0
  Percent Growth: 100%
MDA-MB-231/ATCC; NCI five dose
  GI50: 12.7 µM
  TGI: 1.10E−5
